Source: patent US20230406850A1, “CRYSTALLINE FORM OF HETEROCYCLIC COMPOUND, PREPARATION METHOD THEREFOR AND APPLICATION THEREOF” (WUHAN LL SCIENCE AND TECHNOLOGY DEVELOPMENT CO., LTD., priority 2020, published 2023)
Read-outs that look alike come from different tables or passages of the source.

Assays:
[1] = Solid form change on dehydration, drying or ambient humidity (XRPD); format: physicochemical; settings: heating to dehydration, then ambient humidity
Description: Combined with DSC and TGA pattern, it can be seen that the product is hydrate with about 0.34 water molecules.

[2] = Pharmacokinetics of crystalline form III, fasting and non-fasting; format: in vivo, Beagle dog; settings: for AUC(0-inf) / Cmax / MRT last / Tmax / half-life / AUC(0-t): beagle, dog, po, 100 mg/kg, 100 mg/kg po
Protocol: Beagle dog (general grade, Beijing Masi Biotechnology Co., Ltd.) was given compound A by single oral gavage to study the pharmacokinetics of the compound in plasma. The test drug (100 mg/kg dosage, 5 mL/kg administration volume) was given by gavage, and samples were collected at 10 minutes, 30 minutes, 1 hour, 2 hours, 4 hours, 6 hours, 8 hours, 10 hours, 24 hours and 48 hours after administration: peripheral venipuncture was performed, and about 1.0 mL whole blood was collected from each animal at every time point, and blood samples were collected. Within 60 minutes after blood collection, 0.2 mL of whole blood was separated into a cryopreservation tube, and deionized water was added at a ratio of 1:1, which was mixed upside down and then frozen. The remaining samples were centrifuged at 2,000 g at 2 to 8° C. for 10 min to obtain plasma samples, and the hemolysis of each sample was recorded, and the influence on detection was evaluated, and then the color of plasma was observed and recorded on the blood collection table (“−” means no hemolysis, “+” means pink supernatant and “++” means red supernatant).
The concentration of compound A in plasma was determined by LC-MS/MS method (Non-GLP). The pharmacokinetic parameters were calculated by WinNonlin (Phoenix™, version 8.1) or other similar software. If applicable plasma drug concentration-time data are available, the following pharmacokinetic parameters are calculated: CL (clearance), Vss (steady-state apparent volume of distribution), T1/2 (elimination half-life), Cmax (peak concentration), Tmax (peak time), AUC (area under the concentration-time curve), MRT (mean residence time). Pharmacokinetic data were described by descriptive statistics, such as mean, standard deviation and sample size.

[3] = female, whole blood, Non-fast, blood
[4] = female, whole blood, fast, blood
[5] = male, whole blood, Non-fast, blood

In the case of `COC(=O)N1CCO[C@@H](Cc2c(-c3c(F)cc(S(N)(=O)=O)cc3F)nc3cc(Cl)ccn23)C1` [Crystalline form III, methyl (S)-2-((7-chloro-2-(2,6-difluoro-4-sulfamoylphenyl)imidazo[1,2-a]pyridin-3-yl)methyl)morpholine-4-carboxylate], the “crystalline form after dehydration” value [1] was “becomes crystalline form III again”, the “blood: plasma” value ([2]; fasting condition, female) was 521% and the “blood: plasma” value ([2]; fasting condition, male (first value)) was 1452%. For the same compound, the “plasma drug concentration, male relative to female” value ([2]; fasting condition, plasma) was “about 6 times”, the “whole blood drug concentration, male relative to female” value ([2]; fasting condition, whole blood) was 1.9 times and the AUC(0-inf) ([2]; female, plasma, Non-fast) was 466 µg·h/mL. For the same compound, the Cmax ([2]; female, plasma, Non-fast) was 24000 ng/mL, the MRT last ([2]; female, plasma, Non-fast) was 12.6 h and the Tmax ([2]; female, plasma, Non-fast) was 7.33 h. It also gave a half-life ([2]; female, plasma, Non-fast) of 5.14 h, an AUC(0-t) ([2]; female, plasma, Non-fast, plasma, female, read-out: AUC0-24 h) of 378 µg·h/mL and an AUC(0-t) ([2]; female, plasma, Non-fast, plasma, female, read-out: AUClast) of 465 µg·h/mL. The AUC(0-inf) ([2]; female, plasma, fast) was 9.21 µg·h/mL, the Cmax ([2]; female, plasma, fast) was 1680 ng/mL and the MRT last ([2]; female, plasma, fast) was 8.06 h. The Tmax ([2]; female, plasma, fast) was 1.33 h, the half-life ([2]; female, plasma, fast) was 12 h and the AUC(0-t) ([2]; female, plasma, fast, plasma, female, read-out: AUC0-24 h) was 7.54 µg·h/mL. The AUC(0-t) ([2]; female, plasma, fast, plasma, female, read-out: AUClast) was 8.16 µg·h/mL, the AUC(0-inf) [2, 3] was 955 µg·h/mL and the Cmax [2, 3] was 23500 ng/mL. For the same compound, the MRT last [2, 3] was 18.7 h, the Tmax [2, 3] was 6 h and the half-life [2, 3] was 25.1 h. The AUC(0-t) ([2]; female, whole blood, Non-fast, blood, female, read-out: AUC0-24 h) was 432 µg·h/mL, the AUC(0-t) ([2]; female, whole blood, Non-fast, blood, female, read-out: AUClast) was 675 µg·h/mL and the AUC(0-inf) [2, 4] was 242 µg·h/mL. It also gave a Cmax [2, 4] of 10300 ng/mL, an MRT last [2, 4] of 14.1 h and a Tmax [2, 4] of 1.83 h. It also gave a half-life [2, 4] of 22.4 h, an AUC(0-t) ([2]; female, whole blood, fast, blood, female, read-out: AUC0-24 h) of 134 µg·h/mL and an AUC(0-t) ([2]; female, whole blood, fast, blood, female, read-out: AUClast) of 187 µg·h/mL. The AUC(0-inf) ([2]; male, plasma, Non-fast) was 367 µg·h/mL, the Cmax ([2]; male, plasma, Non-fast) was 18900 ng/mL and the MRT last ([2]; male, plasma, Non-fast) was 11.8 h. The Tmax ([2]; male, plasma, Non-fast) was 4.67 h, the half-life ([2]; male, plasma, Non-fast) was 5.33 h and the AUC(0-t) ([2]; male, plasma, Non-fast, plasma, male, read-out: AUC0-24 h) was 305 µg·h/mL. For the same compound, the AUC(0-t) ([2]; male, plasma, Non-fast, plasma, male, read-out: AUClast) was 366 µg·h/mL, the AUC(0-inf) ([2]; male, plasma, fast) was 40.2 µg·h/mL and the Cmax ([2]; male, plasma, fast) was 5700 ng/mL. For the same compound, the MRT last ([2]; male, plasma, fast) was 13.6 h, the Tmax ([2]; male, plasma, fast) was 9 h and the AUC(0-t) ([2]; male, plasma, fast, plasma, male, read-out: AUC0-24 h) was 48.8 µg·h/mL. It also gave an AUC(0-t) ([2]; male, plasma, fast, plasma, male, read-out: AUClast) of 81.4 µg·h/mL, an AUC(0-inf) [2, 5] of 818 µg·h/mL and a Cmax [2, 5] of 19000 ng/mL. For the same compound, the MRT last [2, 5] was 18.9 h, the Tmax [2, 5] was 4.67 h and the half-life [2, 5] was 28.6 h. The AUC(0-t) ([2]; male, whole blood, Non-fast, blood, male, read-out: AUC0-24 h) was 353 µg·h/mL, the AUC(0-t) ([2]; male, whole blood, Non-fast, blood, male, read-out: AUClast) was 557 µg·h/mL and the AUC(0-inf) ([2]; male, whole blood, fast, blood) was 521 µg·h/mL. It also gave a Cmax ([2]; male, whole blood, fast, blood) of 14600 ng/mL, an MRT last ([2]; male, whole blood, fast, blood) of 19.5 h and a Tmax ([2]; male, whole blood, fast, blood) of 9.33 h. It also gave a half-life ([2]; male, whole blood, fast, blood) of 14.9 h, an AUC(0-t) ([2]; male, whole blood, fast, blood, male, read-out: AUC0-24 h) of 255 µg·h/mL and an AUC(0-t) ([2]; male, whole blood, fast, blood, male, read-out: AUClast) of 449 µg·h/mL. For the same compound, the “blood: plasma” value ([2]; non-fasting condition, female) was 116% and the “blood: plasma” value ([2]; non-fasting condition, male (first value)) was 114%.
